Reference: ChEMBL document CHEMBL1201862, “PubChem BioAssay data set” (2004)
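Protocol summary: plate cells (96-well), add compound at 5 concentrations, incubate 48 h, interpolate endpoints linearly. Here, GI50 denotes the concentration required for 50% inhibition of growth.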 Activity calls are given as the source filed them. Cut-off read from the data, not from the text of the source: active = GI50 up to about 1.1 µM and inactive = higher.

Assays:
Experiment in all cases: inhibition of tumour cell growth, NCI panel, 48 h
[1] = test system: 786-0
[2] = test system: A498
[3] = test system: A549
[4] = test system: ACHN
[5] = test system: CAKI-1
[6] = test system: CCRF-CEM
[7] = test system: COLO 205
[8] = test system: DLD-1
[9] = test system: DMS-114
[10] = test system: DMS-273
[11] = test system: EKVX
[12] = test system: HCC 2998
[13] = test system: HCT-116
[14] = test system: HL-60
[15] = test system: HOP-18
[16] = test system: HOP-62
[17] = test system: HOP-92
[18] = test system: HT-29
[19] = test system: IGROV-1
[20] = test system: K562
[21] = test system: KM-20L2
[22] = test system: KM12
[23] = test system: LOX IMVI
[24] = test system: LXFL 529
[25] = test system: M14
[26] = test system: M19-MEL
[27] = test system: Malme-3M
[28] = test system: NCI-H226
[29] = test system: NCI-H23
[30] = test system: NCI-H460
[31] = test system: OVCAR-3
[32] = test system: OVCAR-4
[33] = test system: OVCAR-5
[34] = test system: OVCAR-8
[35] = test system: RPMI-8226
[36] = test system: RXF 393
[37] = test system: RXF 631
[38] = test system: SF-268
[39] = test system: SF-295
[40] = test system: SF-539
[41] = test system: SK-MEL-28
[42] = test system: SK-MEL-5
[43] = test system: SN12C
[44] = test system: SNB-19
[45] = test system: SNB-75
[46] = test system: SNB-78
[47] = test system: SW-620
[48] = test system: TK-10
[49] = test system: U-251
[50] = test system: UACC-257
[51] = test system: UACC-62
[52] = test system: XF498
[53] = test system: HCT-15
[54] = test system: MOLT-4
[55] = test system: NCI-H522
[56] = test system: SK-MEL-2
[57] = test system: SK-OV-3
[58] = test system: SR
[59] = test system: UO-31

CCOc1ccc(OCC)c([P+](c2ccccc2)(c2ccccc2)c2ccccc2)c1
GI50 [1]: 0.879 µM (active) | GI50 [2]: 0.785 µM (active) | GI50 [3]: 0.443 µM (active) | GI50 [4]: 1.65 µM (inactive) | GI50 [5]: 1.29 µM (inactive) | GI50 [6]: 0.322 µM (active) | GI50 [7]: 0.299 µM (active) | GI50 [8]: 0.548 µM (active) | GI50 [9]: 0.245 µM (active) | GI50 [10]: 0.236 µM (active) | GI50 [11]: 1.1 µM (active) | GI50 [12]: 0.305 µM (active) | GI50 [13]: 0.27 µM (active) | GI50 [14]: 0.114 µM (active) | GI50 [15]: 0.721 µM (active) | GI50 [16]: 1.07 µM (active) | GI50 [17]: 0.182 µM (active) | GI50 [18]: 0.315 µM (active) | GI50 [19]: 0.356 µM (active) | GI50 [20]: 0.213 µM (active) | GI50 [21]: 0.333 µM (active) | GI50 [22]: 0.178 µM (active) | GI50 [23]: 0.35 µM (active) | GI50 [24]: 0.198 µM (active) | GI50 [25]: 0.71 µM (active) | GI50 [26]: 0.4 µM (active) | GI50 [27]: 1.28 µM (inactive) | GI50 [28]: 0.406 µM (active) | GI50 [29]: 0.254 µM (active) | GI50 [30]: 0.383 µM (active) | GI50 [31]: 0.162 µM (active) | GI50 [32]: 1.19 µM (inactive) | GI50 [33]: 0.407 µM (active) | GI50 [34]: 0.358 µM (active) | GI50 [35]: 0.286 µM (active) | GI50 [36]: 0.968 µM (active) | GI50 [37]: 2.4 µM (inactive) | GI50 [38]: 0.617 µM (active) | GI50 [39]: 0.33 µM (active) | GI50 [40]: 0.685 µM (active) | GI50 [41]: 0.818 µM (active) | GI50 [42]: 0.267 µM (active) | GI50 [43]: 0.294 µM (active) | GI50 [44]: 0.378 µM (active) | GI50 [45]: 1.09 µM (active) | GI50 [46]: 0.895 µM (active) | GI50 [47]: 0.44 µM (active) | GI50 [48]: 0.495 µM (active) | GI50 [49]: 0.204 µM (active) | GI50 [50]: 0.215 µM (active) | GI50 [51]: 0.792 µM (active) | GI50 [52]: 0.0841 µM (active)

CCN(CC)CCCN1CCc2c([nH]c3ccccc23)C1c1cccnc1 (centres undefined)
GI50 [1]: > 100 µM (inactive) | GI50 [2]: > 100 µM (inactive) | GI50 [3]: > 100 µM (inactive) | GI50 [4]: > 100 µM (inactive) | GI50 [5]: > 100 µM (inactive) | GI50 [6]: > 100 µM (inactive) | GI50 [7]: > 100 µM (inactive) | GI50 [8]: > 100 µM (inactive) | GI50 [9]: > 100 µM (inactive) | GI50 [10]: > 100 µM (inactive) | GI50 [11]: > 100 µM (inactive) | GI50 [12]: > 100 µM (inactive) | GI50 [13]: > 100 µM (inactive) | GI50 [53]: > 100 µM | GI50 [14]: > 100 µM (inactive) | GI50 [16]: > 100 µM (inactive) | GI50 [17]: 29.2 µM (inactive) | GI50 [18]: > 100 µM (inactive) | GI50 [19]: > 100 µM (inactive) | GI50 [20]: > 100 µM (inactive) | GI50 [21]: > 100 µM (inactive) | GI50 [22]: > 100 µM (inactive) | GI50 [23]: > 100 µM (inactive) | GI50 [24]: > 100 µM (inactive) | GI50 [25]: 61.2 µM (inactive) | GI50 [26]: > 100 µM (inactive) | GI50 [54]: > 100 µM (inactive) | GI50 [27]: 74.1 µM (inactive) | GI50 [28]: > 100 µM (inactive) | GI50 [29]: > 100 µM (inactive) | GI50 [30]: > 100 µM (inactive) | GI50 [55]: > 100 µM (inactive) | GI50 [31]: 88.3 µM (inactive) | GI50 [32]: 96.8 µM (inactive) | GI50 [33]: > 100 µM (inactive) | GI50 [34]: > 100 µM (inactive) | GI50 [35]: > 100 µM (inactive) | GI50 [36]: > 100 µM (inactive) | GI50 [37]: > 100 µM (inactive) | GI50 [39]: > 100 µM (inactive) | GI50 [40]: > 100 µM (inactive) | GI50 [41]: 38.4 µM (inactive) | GI50 [56]: > 100 µM (inactive) | GI50 [42]: 59.8 µM (inactive) | GI50 [57]: > 100 µM (inactive) | GI50 [43]: > 100 µM (inactive) | GI50 [44]: > 100 µM (inactive) | GI50 [45]: > 100 µM (inactive) | GI50 [46]: > 100 µM (inactive) | GI50 [58]: > 100 µM (inactive) | GI50 [47]: > 100 µM (inactive) | GI50 [48]: > 100 µM (inactive) | GI50 [49]: > 100 µM (inactive) | GI50 [50]: 42.8 µM (inactive) | GI50 [51]: > 100 µM (inactive) | GI50 [59]: 83.9 µM (inactive) | GI50 [52]: 5.22 µM (inactive)
